{"source": "patent US8414989B2", "about": "“Cyclodextrin compositions, articles, and methods” (Cellresin Technologies, LLC, priority 2011, dated 2013)", "key": {"[1]": {"experiment": "Example 3: 1-MCP headspace release versus wt-% 1-MCP/c/α-CD in UV-cured coating", "type": "physicochemical", "conditions": "2.5 cm x 10 cm, 250 mL bottle, 20 μL water, 24 hours", "experimental": "A 20 mL bottle was charged with 9.6 g of UV Coating VP 10169/60 MF-2NE (obtained from Verga GmbH of Aschau am Inn, Germany). Then 0.4 g of 1-MCP/α-cyclodextrin complex (4.7% 1-MCP obtained from AgroFresh of Spring House, Pa.) termed “1-MCP/c/α-CD” was added to the bottle. The bottle was then firmly capped and shaken by hand by hand until the blends appear uniformly dispersed, resulting in a 4.0 wt-% 1-MCP/c/α-CD blend. Three additional blends containing 2.0 wt-%, 1.0 wt-% and 0.5 wt-% of 1-MCP/c/α-CD were prepared in the same manner.\nA rubber ink roller was used to deliver a thin (nominally 0.3 μm) coating to a 20 cm by 20 cm polyethylene extrusion coated paper sheet using the technique of Example 2.\nUsing razor blade, 2.5 cm×10 cm rectangles were cut from the coated portion of each of the sheets. Then the coated rectangular sheets were cured using the procedure of Example 2. Each cured, coated rectangle was placed in a 250 mL serum bottle. The bottle was then sealed with TEFLON® faced silicone septa. Then 20 μL of deionized water was injected into each bottle. […] Headspace was analyzed for 1-MCP 24 hours after the injection of water, using the technique employed in Example 2, and employing the 6-point 1-butene calibration curve as described in Example 2. Table 2 and FIG. 2 give the 24-hour average 1-MCP headspace concentration and standard deviation for each of the coated and cured rectangular sheets."}, "[2]": {"experiment": "Example 4: 1-MCP headspace release versus coated surface area and time", "type": "physicochemical", "conditions": "4.0 wt-% 1-MCP/c/α-CD coating, 20 μL water", "experimental": "A 4.0 wt-% 1-MCP/c/α-CD blend was made according to the technique of Example 3. A rubber ink roller was used to deliver a coating having a nominal thickness of 0.3 μm to a 20 cm by 20 cm polyethylene extrusion coated paper sheet using the technique of Example 2. The coated sheet was cured according to the procedure of Example 2.\nUsing a razor blade, 26 cm^2, 52 cm^2, and 78 cm^2 samples were cut from the coated portion of the sheet. Each sample was placed in a 250 mL serum bottle. The bottles were sealed with TEFLON® faced silicone septa. Then 20 μL of deionized water was injected into each bottle. […] Bottle headspace analysis was conducted according to the technique of Example 3 at 0.17 hours, 0.5 hours, 1 hour, 2 hours, 4 hours and 24 hours after the injection of water."}, "[3]": {"experiment": "Example 5: 1-MCP headspace release versus wt-% 1-MCP/c/α-CD and time", "type": "physicochemical", "conditions": "5 cm x 10 cm, 250 mL bottle, water injected, average", "experimental": "Using a razor blade, six 5 cm×10 cm rectangles were cut from the coated portions of 20 cm by 20 cm sheets prepared as in Example 3 and having 1.0 wt-%, 2.0 wt-% and 4.0 wt-% 1-MCP/c/α-CD, and the coated rectangles were cured according to the technique of Example 2. The rectangles were individually placed in 250 mL serum bottles. The bottles were sealed with TEFLON® faced silicone septa. Then […] of deionized water was injected into each bottle. […] Bottle headspace was analyzed at 4, 8, 24 and 48 hours after the injection of water, using the technique of Example 3. The results are provided in Table 4 and FIG. 4 and give the average headspace concentration and standard deviation for the different wt-% 1-MCP/c/α-CD coatings as a function of time."}, "[4]": {"experiment": "Example 7: 1-MCP permeation through polyethylene film from PSA label into 1,000 mL headspace", "type": "physicochemical", "conditions": "11 cm diameter PSA label on 25 μm PE film, 1,000 mL kettle", "source_text": "This method is designed to measure the permeability of 1-MCP through polyethylene film into a confined, fixed volume headspace following release from a PSA label adhered to the surface of the film defining the fixed volume. The methodology simulates the headspace of a flexible film package having initially low relative humidity, wherein a PSA label containing 1-MCP is adhered to the outside of the package. As the humidity rises inside the package by respiration of fresh agricultural products, the water vapor increases in concentration and it diffuses through the package film to the outside environment but also into the PSA. Thus, as the water vapor diffuses through the film into the 1-MCP adhesive label adhered to the outside of the package film; 1-MCP released from the label adhesive into the fixed volume (headspace) was measured.\nA coated, cured labelstock sheet made according to the procedure of Example 6 was cut by hand into an 11 cm diameter circle. Next the PET liner was removed from the label and the label was adhered via the PSA to a 13.5 cm diameter, 1 mil (25 μm) thick polyethylene (PE) film (obtained from the Pliant Corporation of Schaumburg, Ill.). The paper side of this structure was then covered with aluminum foil. The foil/paper/PSA/PE layered structure was mounted onto the open end of a 1,000 mL glass reaction kettle bottom (6947-1LBO, from Corning Glass of Corning, N.Y.) and sealed to the kettle's glass flange using aluminum sealing rings. The layered structure was oriented over the 11 cm opening with the PE film facing in and the aluminum facing out. The glass reaction kettle was modified with a silicone septum port to allow sampling of the 1,000 mL headspace. Headspace analysis was conducted by removing 250 μL of headspace volume from the 1,000 mL glass kettle and analyzing according to the technique of Example 3.\nThen 200 μL of water was added through the septum port to the inside of the glass kettle. The headspace was analyzed for 1-MCP at 17, 25 and 90 hours after the injection of water using the technique employed in Example 3. At 17 hours, 25 hours, and 90 hours after injection of the water, the 1-MCP headspace concentration was 3.6 ppm, 7.0 ppm and 8.0 ppm of 1-MCP, respectively."}, "[5]": {"conditions": "cited from earlier work"}}}
{"smiles": "CC1=CC1", "note": "[1-MCP, 1-methylcyclopropene]", "values": [{"measurement": "Headspace concentration of 1-MCP, Ave.", "setting": "[1]; 0.5 wt-% 1-MCP/c/α-CD coating", "result": "0.09 ppm (v/v)"}, {"measurement": "Headspace concentration of 1-MCP, Ave.", "setting": "[1]; 1 wt-% 1-MCP/c/α-CD coating", "result": "0.20 ppm (v/v)"}, {"measurement": "Headspace concentration of 1-MCP, Ave.", "setting": "[1]; 2 wt-% 1-MCP/c/α-CD coating", "result": "0.56 ppm (v/v)"}, {"measurement": "Headspace concentration of 1-MCP, Ave.", "setting": "[1]; 4 wt-% 1-MCP/c/α-CD coating", "result": "1.1 ppm (v/v)"}, {"measurement": "Headspace concentration of 1-MCP", "setting": "[2]; 26 cm^2, 250 mL bottle, 0.17 hrs", "result": 0.25, "unit": "ppm -v/v"}, {"measurement": "Headspace concentration of 1-MCP", "setting": "[2]; 26 cm^2, 250 mL bottle, 0.5 hrs", "result": 1.5, "unit": "ppm -v/v"}, {"measurement": "Headspace concentration of 1-MCP", "setting": "[2]; 26 cm^2, 250 mL bottle, 1 hr", "result": 2.4, "unit": "ppm -v/v"}, {"measurement": "Headspace concentration of 1-MCP", "setting": "[2]; 26 cm^2, 250 mL bottle, 2 hrs", "result": 3.7, "unit": "ppm -v/v"}, {"measurement": "Headspace concentration of 1-MCP", "setting": "[2]; 26 cm^2, 250 mL bottle, 4 hrs", "result": 5.8, "unit": "ppm -v/v"}, {"measurement": "Headspace concentration of 1-MCP", "setting": "[2]; 26 cm^2, 250 mL bottle, 24 hrs", "result": 9.6, "unit": "ppm -v/v"}, {"measurement": "Headspace concentration of 1-MCP", "setting": "[2]; 52 cm^2, 250 mL bottle, 0.17 hrs", "result": 0.66, "unit": "ppm - v/v"}, {"measurement": "Headspace concentration of 1-MCP", "setting": "[2]; 52 cm^2, 250 mL bottle, 0.5 hrs", "result": 2.2, "unit": "ppm - v/v"}, {"measurement": "Headspace concentration of 1-MCP", "setting": "[2]; 52 cm^2, 250 mL bottle, 1 hr", "result": 4.2, "unit": "ppm - v/v"}, {"measurement": "Headspace concentration of 1-MCP", "setting": "[2]; 52 cm^2, 250 mL bottle, 2 hrs", "result": 7.0, "unit": "ppm - v/v"}, {"measurement": "Headspace concentration of 1-MCP", "setting": "[2]; 52 cm^2, 250 mL bottle, 4 hrs", "result": 9.9, "unit": "ppm - v/v"}, {"measurement": "Headspace concentration of 1-MCP", "setting": "[2]; 52 cm^2, 250 mL bottle, 24 hrs", "result": 16.1, "unit": "ppm - v/v"}, {"measurement": "Headspace concentration of 1-MCP", "setting": "[2]; 78 cm^2, 250 mL bottle, 0.17 hrs", "result": 1.7, "unit": "ppm - v/v"}, {"measurement": "Headspace concentration of 1-MCP", "setting": "[2]; 78 cm^2, 250 mL bottle, 0.5 hrs", "result": 3.4, "unit": "ppm - v/v"}, {"measurement": "Headspace concentration of 1-MCP", "setting": "[2]; 78 cm^2, 250 mL bottle, 1 hr", "result": 5.2, "unit": "ppm - v/v"}, {"measurement": "Headspace concentration of 1-MCP", "setting": "[2]; 78 cm^2, 250 mL bottle, 2 hrs", "result": 7.9, "unit": "ppm - v/v"}, {"measurement": "Headspace concentration of 1-MCP", "setting": "[2]; 78 cm^2, 250 mL bottle, 4 hrs", "result": 12.4, "unit": "ppm - v/v"}, {"measurement": "Headspace concentration of 1-MCP", "setting": "[2]; 78 cm^2, 250 mL bottle, 24 hrs", "result": 20.0, "unit": "ppm - v/v"}, {"measurement": "1-MCP in Headspace", "setting": "[3]; 1 wt-% 1-MCP/c/α-CD coated, 4 hours", "result": 0.96, "unit": "ppm-v/v"}, {"measurement": "1-MCP in Headspace", "setting": "[3]; 1 wt-% 1-MCP/c/α-CD coated, 8 hours", "result": 2.0, "unit": "ppm-v/v"}, {"measurement": "1-MCP in Headspace", "setting": "[3]; 1 wt-% 1-MCP/c/α-CD coated, 24 hours", "result": 3.6, "unit": "ppm-v/v"}, {"measurement": "1-MCP in Headspace", "setting": "[3]; 1 wt-% 1-MCP/c/α-CD coated, 48 hours", "result": 4.0, "unit": "ppm-v/v"}, {"measurement": "1-MCP in Headspace", "setting": "[3]; 2 wt-% 1-MCP/c/α-CD coated, 4 hours", "result": 3.5, "unit": "ppm-v/v"}, {"measurement": "1-MCP in Headspace", "setting": "[3]; 2 wt-% 1-MCP/c/α-CD coated, 8 hours", "result": 7.8, "unit": "ppm-v/v"}, {"measurement": "1-MCP in Headspace", "setting": "[3]; 2 wt-% 1-MCP/c/α-CD coated, 24 hours", "result": 17.8, "unit": "ppm-v/v"}, {"measurement": "1-MCP in Headspace", "setting": "[3]; 2 wt-% 1-MCP/c/α-CD coated, 48 hours", "result": 21.2, "unit": "ppm-v/v"}, {"measurement": "1-MCP in Headspace", "setting": "[3]; 4 wt-% 1-MCP/c/α-CD coated, 4 hours", "result": 7.5, "unit": "ppm-v/v"}, {"measurement": "1-MCP in Headspace", "setting": "[3]; 4 wt-% 1-MCP/c/α-CD coated, 8 hours", "result": 13.5, "unit": "ppm-v/v"}, {"measurement": "1-MCP in Headspace", "setting": "[3]; 4 wt-% 1-MCP/c/α-CD coated, 24 hours", "result": 24.0, "unit": "ppm-v/v"}, {"measurement": "1-MCP in Headspace", "setting": "[3]; 4 wt-% 1-MCP/c/α-CD coated, 48 hours", "result": 28.0, "unit": "ppm-v/v"}, {"measurement": "1-MCP headspace concentration", "setting": "[4]; 200 μL water, 17 hours", "result": 3.6, "unit": "ppm"}, {"measurement": "1-MCP headspace concentration", "setting": "[4]; 200 μL water, 25 hours", "result": 7.0, "unit": "ppm"}, {"measurement": "1-MCP headspace concentration", "setting": "[4]; 200 μL water, 90 hours", "result": 8.0, "unit": "ppm"}, {"measurement": "1-MCP headspace concentration", "setting": "[4]; no added water, two hours", "result": "< 0.01", "unit": "ppm"}, {"measurement": "1-MCP remained complexed", "setting": "[5]; 1-MCP/c/α-CD, end of the experiments", "result": "~83.4", "unit": "%"}, {"measurement": "total complexed 1-MCP dissociated at the end of the experiments, average", "setting": "[5]; 1-MCP/c/α-CD, humidity-triggered dissociation", "result": "~17.6", "unit": "%"}, {"measurement": "complexed 1-MCP released from 1-MCP/c/α-CD", "setting": "[5]; 100% relative humidity", "result": "less than 20%"}]}
